Values of other authors as cited in US10143689B2, “SN-38 loaded iron crosslinked micelle and methods thereof” (Intezyne Technologies, Inc., priority 2017, dated 2018).

Tests used:
various cancer cells = conditions: in vitro

CCc1c2c(nc3ccc(O)cc13)-c1cc3c(c(=O)n1C2)COC(=O)[C@]3(O)CC [SN-38, 7-ethyl-10-hydroxy-CPT]
cytotoxic activity, potency relative to CPT-11 (various cancer cells): up to 1,000 fold | solubility in aqueous solutions: exceedingly insoluble
